# Source: EPA's ToxValDB 9.5 (doi:10.2903/j.efsa.2006.88r)
# Experiments:
# Daphnia magna = conditions: chronic/long-term; duration: 21 days; reproduction
# Apis mellifera = conditions: acute; duration: 48 hours; oral; unspecified; mortality
# Tagia sp. = conditions: mortality
# [1] = acute; oral; unspecified; mortality
# Oryctolagus sp. = conditions: subchronic; oral; histopathology: nonneoplastic
# Canidae = conditions: subchronic; oral; Dog Other; histopathology: nonneoplastic
smiles,measurement,setting,value
CSc1nnc(C(C)(C)C)c(=O)n1N [Metribuzin],NOEC,Daphnia magna,0.32 mg/L
same,LD50,Apis mellifera,166 µg/piece
same,LC50,"Tagia sp.; acute, duration: 14 days",427 mg/kg
same,NOEC,"Tagia sp.; chronic/long-term, duration: 8 weeks",5250 g/ha
same,LD50,[1],322 mg/kg
same,LD50,"Bird; acute, oral, unspecified, mortality",164 mg/kg
same,NOEC,Bird; reproductive,28.3 mg/kg-day
same,LC50,"Bird; short-term, oral, feed, mortality",> 359 mg/kg-day
same,LC50,"Oncorhynchus mykiss; acute, duration: 96 hours, mortality",74.6 µg/mL
same,NOEC,"Oncorhynchus mykiss; chronic/long-term, duration: 95 days, growth",4.4 mg/L
same,NOAEL,Oryctolagus sp.,2 mg/kg-day
same,NOAEL,"Rattus norvegicus; acute, clinical signs",> 2 mg/kg-day
same,NOAEL,"Rattus norvegicus; chronic, duration: 2 years",1.3 mg/kg-day
same,NOAEL,"Rattus norvegicus; reproduction developmental, body weight",2.2 mg/kg-day
same,NOAEL,"Rattus norvegicus; subchronic, oral, histopathology: nonneoplastic",2 mg/kg-day
same,NOAEL,Canidae,2 mg/kg-day
